Data taken from patent US20160129089A1, “COMBINATION THERAPY” (ANTISENSE THERAPEUTICS LTD, priority 2013, published 2016).
e = 2'-O-(2-methoxyethyl) (MOE); d = 2'-deoxy (DNA)

Test system: human growth hormone receptor mRNA
Assay: Inhibition of human growth hormone receptor mRNA levels by antisense oligonucleotides, quantitative real-time PCR, MCF7 cells
Type: cell-based
Set-up: concentration or dose not given beside the values
Settings: averages from three experiments
Protocol: “Target site” indicates the first (5′-most) nucleotide number on the particular target sequence to which the oligonucleotide binds. “% Inhib” indicates the inhibitory effect on hGHR mRNA levels by quantitative real-time PCR. Data are averages from three experiments in which MCF7 cells were treated with the antisense oligonucleotides.
All oligonucelotides in Table 1 are chimeric oligonucleotides (“gapmers”), 20 nucleotides in length, composed of a central “gap” region consisting of ten 2′-deoxynucleotides, which is flanked on both sides (5′ and 3′ directions) by five-nucleotide “wings”. The wings are composed of 2′-methoxyethyl (2′-MOE) nucleotides. The internucleoside (backbone) linkages are phosphorothioate (P═S) throughout the oligonucleotide. All uracils are 5-methyluracils (^MeU). Typically, the oligonucleotide is synthesized using 2-methoxyethyl modified thymidines not 5-methyluracils. All pyrimidines are C5 methylated (i.e., U, T, C are C5 methylated).

| Substance | % INHIB (inhibitory effect on hGHR mRNA levels) |
| --- | --- |
| 227484 (antisense TGGTAAGGCTTTCTGTGGTG; sugars from the 5' end e5 d10 e5, all phosphorothioate, methylation of C not given here) [compound 227484] | 63% |
| 272306 (antisense TTAGAAGAATTTGTCTTTAG; sugars from the 5' end e5 d10 e5, all phosphorothioate, methylation of C not given here) [compound 272306] | 13% |
| 272353 (antisense ATAATGGCTTATGTGGCCAC; sugars from the 5' end e5 d10 e5, all phosphorothioate, methylation of C not given here) [compound 272353] | 72% |
| 227469 (antisense CTTAGAAGTCTGTCTGTGTC; sugars from the 5' end e5 d10 e5, all phosphorothioate, methylation of C not given here) [compound 227469] | 63% |
| 272314 (antisense TAGGGTCCATCATTTTCCAT; sugars from the 5' end e5 d10 e5, all phosphorothioate, methylation of C not given here) [compound 272314] | 56% |
| 227453 (antisense CATAATCAGGGCATTCTTTC; sugars from the 5' end e5 d10 e5, all phosphorothioate, methylation of C not given here) [compound 227453] | 52% |
| 272333 (antisense GTGCTCACATAGCCACATGA; sugars from the 5' end e5 d10 e5, all phosphorothioate, methylation of C not given here) [compound 272333] | 72% |
| 227500 (antisense CATAGCAGCAAAGTAGCAGA; sugars from the 5' end e5 d10 e5, all phosphorothioate, methylation of C not given here) [compound 227500] | 69% |
| 272341 (antisense GAGGCTATAGATCTTATCTC; sugars from the 5' end e5 d10 e5, all phosphorothioate, methylation of C not given here) [compound 272341] | 65% |
| 272348 (antisense CACAGCTTTGAATTGAATTA; sugars from the 5' end e5 d10 e5, all phosphorothioate, methylation of C not given here) [compound 272348] | 57% |
| 272354 (antisense AGTTATGTGACCCTGATTGA; sugars from the 5' end e5 d10 e5, all phosphorothioate, methylation of C not given here) [compound 272354] | 65% |
| 272316 (antisense AACTCGCCATAATTTCCAGA; sugars from the 5' end e5 d10 e5, all phosphorothioate, methylation of C not given here) [compound 272316] | 64% |
| 272357 (antisense TAGGGTCCATCTTTCAAGAC; sugars from the 5' end e5 d10 e5, all phosphorothioate, methylation of C not given here) [compound 272357] | 62% |
| 272317 (antisense AGCCCAAATATTCCAAAGAT; sugars from the 5' end e5 d10 e5, all phosphorothioate, methylation of C not given here) [compound 272317] | 65% |
